Read-outs that look alike come from different tables or passages of the source.
Key:
[1] = tested on: A549; test: NCI 60 panel: A549 (Non-Small Cell Lung Cancer); type: cell-based
[2] = tested on: tubulin; test: Biochemical tubulin polymerization; conditions: FIG. 11C
Experimental: Following 24 hours of treatment with Compound DBM 228, Compound DBM 318, and Compound DBM 328, caspase 3/7 activation in U251MG cells was determined. The detection of caspase 3/7 activation in U251MG cells indicates activation of apoptosis. Tubulin polymerization was determined for Compounds DBM 227, DBM 228, DBM 308, DBM 318, DBM 701, DBM 707, DBM 715, paclitaxel, vincristine, and negative control Compound DBM 328. […] Paclitaxel served as polymerization enhancer control and vincristine served as polymerization inhibitor control.

[3] = tested on: PC-3; test: NCI 60 panel: PC-3 (Prostate Cancer); type: cell-based
[4] = tested on: NCI-H522; test: NCI 60 panel: NCI-H522 (Non-Small Cell Lung Cancer); type: cell-based
[5] = tested on: SW-620; test: NCI 60 panel: SW-620 (Colon Cancer); type: cell-based
[6] = tested on: NCI-H23; test: NCI 60 panel: NCI-H23 (Non-Small Cell Lung Cancer); type: cell-based
[7] = tested on: SNB-75; test: NCI 60 panel: SNB-75 (CNS Cancer); type: cell-based
[8] = tested on: KM12; test: NCI 60 panel: KM12 (Colon Cancer); type: cell-based
[9] = tested on: SK-MEL-28; test: NCI 60 panel: SK-MEL-28 (Melanoma); type: cell-based
[10] = tested on: ARH-77; test: Complementary DBM in vitro profiling: ARH-77 (Hematologic Cancer); type: cell-based
Experimental: (§1) The compounds described herein are effective for inhibiting cellular proliferation in hyperproliferative cell types. To study the effects of these compounds, an assay was developed to differentiate the effects of the compounds on proliferating versus confluent cells. The assay design generates a proliferating density 24 hours after seeding and provides a 3-day active cell growth/doubling window in which to gauge the anti-proliferative effect of the compounds described herein. […] In this 3-day growth window, cell number increases with daily doublings across the 72-hour period (see FIG. 1).
(§2) In each assay design, compounds were added at the 24-hour timepoint after cell seeding. The effect of the compounds, relative to vehicle control and to VelCade (a proteasome inhibitor approved in the U.S. for treating relapsed multiple myeloma and mantle cell lymphoma) as a positive control, was assessed across the 3-day growth window for proliferating cells and on an already near confluent culture of cells for the same time period. Normal cells were handled in the same manner, with some adjustment of seeding density needed in select cases. […]
(§3) Cell number at the end of the assay was determined using the CELLTITER-GLO Luminescent Cell Viability Assay (Promega; Madison, Wis.). The CELLTITER-GLO Luminescent Cell Viability Assay is a homogeneous method of determining the number of viable cells in culture based on quantitation of the ATP present, an indicator of metabolically active cells. IC50 values were calculated. […]
(§4) For a typical screening experiment to identify the compounds, cells were seeded into 96- or 384-well microtiter plates at plating densities pre-determined for each cell line to ensure drug exposure occurs during the proliferative phase well before confluency is reached. […] Values were calculated for each of these three parameters if the level of activity was reached; however, if the effect was not reached or was exceeded, the value for that parameter was expressed as greater or less than the maximum or minimum concentration tested.

[11] = tested on: M14; test: NCI 60 panel: M14 (Melanoma); type: cell-based
[12] = tested on: OVCAR-3
Description: (§5) TGI means the drug concentration resulting in total growth inhibition or “cytostasis.” LC50 is the concentration of drug resulting in a 50% reduction in the measured cytosolic ATP at the end of the drug treatment as compared to that at the beginning, indicating a net loss of cells following treatment (cytotoxicity).
(§6) A major limitation with the anti-mitotic drugs in particular and in conventional chemotherapeutics in general, is their susceptibility to cellular mechanisms of adaptive/intrinsic multi-drug resistance (i.e., MDR efflux pumps such as p-glycoprotein, MRP1).

[13] = tested on: SK-OV-3
Description: as §5, §6

[14] = tested on: NCI/ADR-RES
Description: as §5, §6

[15] = tested on: RXF 393; test: NCI 60 panel: RXF 393 (Renal Cancer); type: cell-based
[16] = tested on: MDA-MB-468; test: NCI 60 panel: MDA-MB-468 (Breast Cancer); type: cell-based
[17] = tested on: HL-60; test: NCI 60 panel: HL-60 (Leukemia); type: cell-based
[18] = tested on: SF-539; test: NCI 60 panel: SF-539 (CNS Cancer); type: cell-based
[19] = tested on: HT29; test: NCI 60 panel: HT29 (Colon Cancer); type: cell-based
[20] = tested on: RPMI-8826; test: Complementary DBM in vitro profiling: RPMI-8826 (Hematologic Cancer); type: cell-based
Experimental: as §1, §2, §3, §4

[21] = read-out: LC50 (the source's name)

## COc1ccccc1Nc1nc(-c2cc3cccc(N)c3oc2=O)cs1 [Compound DBM 228]
[1]
  GI50: 97 nM
  TGI: 22600 nM
[1]; [21]
  CC50: > 100000 nM
[2]
  effect on biochemical tubulin polymerization, in words: modestly inhibited
[3]
  GI50: 270 nM
  TGI: 36000 nM
[3]; [21]
  CC50: > 100000 nM
[4]
  GI50: 24.7 nM
  TGI: 94 nM
[4]; [21]
  CC50: > 100000 nM
[5]
  GI50: 64 nM
  TGI: >100000 nM
[5]; [21]
  CC50: > 100000 nM
[6]
  GI50: 504 nM
  TGI: 15800 nM
[6]; [21]
  CC50: 63100 nM
[7]
  GI50: 48.1 nM
[7]; [21]
  CC50: > 100000 nM
[8]
  GI50: 70.5 nM
  TGI: 13400 nM
[8]; [21]
  CC50: > 100000 nM
[9]
  GI50: 88.9 nM
  TGI: 31000 nM
[9]; [21]
  CC50: 99300 nM
[10]
  GI50: 154 nM
  TGI: 339 nM
[10]; [21]
  CC50: > 30000 nM
[11]
  GI50: 70.8 nM
[11]; [21]
  CC50: 49900 nM
[12]
  CC50: 24200 nM
[12]; OVCAR-3
  GI50: 45.6 nM
  TGI: 322 nM
[12]; OVCAR-3, as stated in text
  GI50: 50 nM
[13]
  CC50: > 100000 nM
[13]; SK-OV-3
  GI50: 410 nM
  TGI: 22000 nM
[13]; SK-OV-3, as stated in text
  GI50: 330 nM
[14]
  CC50: > 100000 nM
[14]; NCI-ADR/RES versus drug-responsive cells
  potency in multi-drug resistant line, in words (FIG. 9): remained potent
[14]; NCI/ADR-RES
  GI50: 45.9 nM
  TGI: 327 nM
[14]; read-out: potency in the NCI-ADR/RES cell line, multi-drug resistant NCI-ADR/RES
  IC50: 44.5 nM
[15]
  GI50: 218 nM
  TGI: 15200 nM
[15]; [21]
  CC50: 52600 nM
[16]
  GI50: 47.1 nM
  TGI: 800 nM
[16]; [21]
  CC50: 60900 nM
[17]
  GI50: 34 nM
  TGI: 137 nM
[17]; [21]
  CC50: 825 nM
[18]
  GI50: 109 nM
  TGI: 850 nM
[18]; [21]
  CC50: 29800 nM
[19]
  GI50: 308 nM
  TGI: 1600 nM
[19]; [21]
  CC50: 24700 nM
[20]
  GI50: 271 nM
  TGI: 312 nM
[20]; [21]
  CC50: > 30000 nM

Source: patent US10369145B2, “Coumarin derivatives and methods of use in treating hyperproliferative diseases” (DISCOVERYBIOMED, INC., priority 2013, dated 2019)
